# Assay results as given in ChEMBL document CHEMBL1201862, “PubChem BioAssay data set” (2004).
# Where a name gives a salt, the structure may show the parent alone.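 Exposure lasted 48 hours, with cells grown in 96-well plates and compounds tested at five concentrations. Abbreviation: GI50, concentration required for 50% inhibition of growth.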 Active and inactive are the calls of the source. Rule as the data show it: active = GI50 up to about 1.1 µM and inactive = higher.
# Assays:
# Test in all cases: NCI tumour cell line growth inhibition, 48 h
# [1] = test system: 786-0
# [2] = test system: A498
# [3] = test system: A549
# [4] = test system: ACHN
# [5] = test system: BT-549
# [6] = test system: CAKI-1
# [7] = test system: COLO 205
# [8] = test system: DLD-1
# [9] = test system: DMS-114
# [10] = test system: DMS-273
# [11] = test system: EKVX
# [12] = test system: HCC 2998
# [13] = test system: HCT-116
# [14] = test system: HL-60
# [15] = test system: HOP-18
# [16] = test system: HOP-62
# [17] = test system: HT-29
# [18] = test system: Hs-578T
# [19] = test system: IGROV-1
# [20] = test system: K562
# [21] = test system: KM-20L2
# [22] = test system: LOX IMVI
# [23] = test system: M14
# [24] = test system: M19-MEL
# [25] = test system: MCF7
# [26] = test system: MDA-MB-231
# [27] = test system: MOLT-4
# [28] = test system: Malme-3M
# [29] = test system: NCI-H23
# [30] = test system: NCI-H460
# [31] = test system: NCI-H522
# [32] = test system: NCI/ADR-RES
# [33] = test system: OVCAR-4
# [34] = test system: OVCAR-5
# [35] = test system: OVCAR-8
# [36] = test system: PC-3
# [37] = test system: RPMI-8226
# [38] = test system: RXF 393
# [39] = test system: SF-268
# [40] = test system: SF-295
# [41] = test system: SF-539
# [42] = test system: SK-MEL-2
# [43] = test system: SK-MEL-5
# [44] = test system: SK-OV-3
# [45] = test system: SN12C
# [46] = test system: SNB-75
# [47] = test system: SNB-78
# [48] = test system: SR
# [49] = test system: T47D
# [50] = test system: TK-10
# [51] = test system: U-251
# [52] = test system: UACC-257
# [53] = test system: UACC-62
# [54] = test system: XF498
# [55] = test system: CCRF-CEM
# [56] = test system: HOP-92
# [57] = test system: KM12
# [58] = test system: NCI-H226
# [59] = test system: OVCAR-3
# [60] = test system: SK-MEL-28
# [61] = test system: SNB-19
# [62] = test system: SW-620
# [63] = test system: UO-31
# [64] = test system: HCT-15
# [65] = test system: LXFL 529
compound,measurement,setting,value
N=c1ccn2c(n1)O[C@H]1[C@H](O)[C@@H](CO)O[C@H]12 [ANCITABINE HYDROCHLORIDE],GI50,[1],0.57 µM (active)
same,GI50,[2],13.6 µM (inactive)
same,GI50,[3],0.198 µM (active)
same,GI50,[4],0.291 µM (active)
same,GI50,[5],> 1000 µM (inactive)
same,GI50,[6],1.66 µM (inactive)
same,GI50,[7],154 µM (inactive)
same,GI50,[8],652 µM (inactive)
same,GI50,[9],0.406 µM (active)
same,GI50,[10],2.34 µM (inactive)
same,GI50,[11],62.1 µM (inactive)
same,GI50,[12],33.7 µM (inactive)
same,GI50,[13],0.282 µM (active)
same,GI50,[14],0.346 µM (active)
same,GI50,[15],11.2 µM (inactive)
same,GI50,[16],0.292 µM (active)
same,GI50,[17],135 µM (inactive)
same,GI50,[18],> 1000 µM (inactive)
same,GI50,[19],151 µM (inactive)
same,GI50,[20],8.85 µM (inactive)
same,GI50,[21],> 562 µM (inactive)
same,GI50,[22],0.347 µM (active)
same,GI50,[23],0.253 µM (active)
same,GI50,[24],7.21 µM (inactive)
same,GI50,[25],0.522 µM (active)
same,GI50,[26],31.7 µM (inactive)
same,GI50,[27],0.207 µM (active)
same,GI50,[28],3.03 µM (inactive)
same,GI50,[29],0.406 µM (active)
same,GI50,[30],0.154 µM (active)
same,GI50,[31],47.4 µM (inactive)
same,GI50,[32],2.35 µM (inactive)
same,GI50,[33],> 1000 µM (inactive)
same,GI50,[34],24.7 µM (inactive)
same,GI50,[35],0.658 µM (active)
same,GI50,[36],2.79 µM (inactive)
same,GI50,[37],141 µM (inactive)
same,GI50,[38],79.8 µM (inactive)
same,GI50,[39],7.05 µM (inactive)
same,GI50,[40],25.2 µM (inactive)
same,GI50,[41],44.1 µM (inactive)
same,GI50,[42],411 µM (inactive)
same,GI50,[43],9.23 µM (inactive)
same,GI50,[44],66.1 µM (inactive)
same,GI50,[45],1.91 µM (inactive)
same,GI50,[46],532 µM (inactive)
same,GI50,[47],242 µM (inactive)
same,GI50,[48],0.183 µM (active)
same,GI50,[49],213 µM (inactive)
same,GI50,[50],> 1000 µM (inactive)
same,GI50,[51],15.1 µM (inactive)
same,GI50,[52],78.7 µM (inactive)
same,GI50,[53],2.24 µM (inactive)
same,GI50,[54],> 647 µM (inactive)
C=CC[C@H](C[C@H](C[C@H](C[C@H](C[C@H](C[C@H](C[C@H](C[C@H](C[C@H](C[C@H](CCCCC)OC)OC)OC)OC)OC)OC)OC)OC)OC)OC,GI50,[1],> 100 µM (inactive)
same,GI50,[2],85.7 µM (inactive)
same,GI50,[3],> 100 µM (inactive)
same,GI50,[4],> 100 µM (inactive)
same,GI50,[6],> 100 µM (inactive)
same,GI50,[55],> 100 µM (inactive)
same,GI50,[7],> 100 µM (inactive)
same,GI50,[8],> 100 µM (inactive)
same,GI50,[9],52.6 µM (inactive)
same,GI50,[10],> 100 µM (inactive)
same,GI50,[11],> 100 µM (inactive)
same,GI50,[12],> 100 µM (inactive)
same,GI50,[13],82.6 µM (inactive)
same,GI50,[14],52.5 µM (inactive)
same,GI50,[15],> 100 µM (inactive)
same,GI50,[16],> 100 µM (inactive)
same,GI50,[56],> 100 µM (inactive)
same,GI50,[17],> 100 µM (inactive)
same,GI50,[19],> 100 µM (inactive)
same,GI50,[20],70.3 µM (inactive)
same,GI50,[21],> 100 µM (inactive)
same,GI50,[57],> 100 µM (inactive)
same,GI50,[22],> 100 µM (inactive)
same,GI50,[23],> 100 µM (inactive)
same,GI50,[24],> 100 µM (inactive)
same,GI50,[27],41.8 µM (inactive)
same,GI50,[28],> 100 µM (inactive)
same,GI50,[58],62.2 µM (inactive)
same,GI50,[29],98.6 µM (inactive)
same,GI50,[30],> 100 µM (inactive)
same,GI50,[31],66.2 µM (inactive)
same,GI50,[59],> 100 µM (inactive)
same,GI50,[33],> 100 µM (inactive)
same,GI50,[34],> 100 µM (inactive)
same,GI50,[35],> 100 µM (inactive)
same,GI50,[37],52.4 µM (inactive)
same,GI50,[38],66.4 µM (inactive)
same,GI50,[39],> 100 µM (inactive)
same,GI50,[40],> 100 µM (inactive)
same,GI50,[41],> 100 µM (inactive)
same,GI50,[60],> 100 µM (inactive)
same,GI50,[42],> 100 µM (inactive)
same,GI50,[43],52.7 µM (inactive)
same,GI50,[44],> 100 µM (inactive)
same,GI50,[45],> 100 µM (inactive)
same,GI50,[61],83.2 µM (inactive)
same,GI50,[46],58.1 µM (inactive)
same,GI50,[47],> 100 µM (inactive)
same,GI50,[48],36.6 µM (inactive)
same,GI50,[62],> 100 µM (inactive)
same,GI50,[50],> 100 µM (inactive)
same,GI50,[51],> 100 µM (inactive)
same,GI50,[52],70.8 µM (inactive)
same,GI50,[53],> 100 µM (inactive)
same,GI50,[63],50.7 µM (inactive)
same,GI50,[54],41.6 µM (inactive)
CCOCc1cc(=O)c2c(OC)cc3c(c2o1)CCC(C)(C)O3,GI50,[1],> 100 µM (inactive)
same,GI50,[3],> 100 µM (inactive)
same,GI50,[4],> 100 µM (inactive)
same,GI50,[55],> 100 µM (inactive)
same,GI50,[8],> 100 µM (inactive)
same,GI50,[11],> 100 µM (inactive)
same,GI50,[12],> 100 µM (inactive)
same,GI50,[13],> 100 µM (inactive)
same,GI50,[64],> 100 µM
same,GI50,[14],> 100 µM (inactive)
same,GI50,[15],> 100 µM (inactive)
same,GI50,[16],> 100 µM (inactive)
same,GI50,[56],33.4 µM (inactive)
same,GI50,[17],> 100 µM (inactive)
same,GI50,[19],> 100 µM (inactive)
same,GI50,[20],> 100 µM (inactive)
same,GI50,[21],> 100 µM (inactive)
same,GI50,[57],> 100 µM (inactive)
same,GI50,[22],> 100 µM (inactive)
same,GI50,[65],> 100 µM (inactive)
same,GI50,[23],> 100 µM (inactive)
same,GI50,[24],> 100 µM (inactive)
same,GI50,[27],> 100 µM (inactive)
same,GI50,[28],> 100 µM (inactive)
same,GI50,[29],> 100 µM (inactive)
same,GI50,[30],> 100 µM (inactive)
same,GI50,[31],> 100 µM (inactive)
same,GI50,[59],> 100 µM (inactive)
same,GI50,[33],> 100 µM (inactive)
same,GI50,[34],> 100 µM (inactive)
same,GI50,[35],> 100 µM (inactive)
same,GI50,[38],> 100 µM (inactive)
same,GI50,[40],> 100 µM (inactive)
same,GI50,[41],> 100 µM (inactive)
same,GI50,[60],> 100 µM (inactive)
same,GI50,[42],> 100 µM (inactive)
same,GI50,[43],> 100 µM (inactive)
same,GI50,[44],> 100 µM (inactive)
same,GI50,[45],> 100 µM (inactive)
same,GI50,[46],> 100 µM (inactive)
same,GI50,[47],> 100 µM (inactive)
same,GI50,[48],> 100 µM (inactive)
same,GI50,[62],> 100 µM (inactive)
same,GI50,[50],> 100 µM (inactive)
same,GI50,[51],> 100 µM (inactive)
same,GI50,[52],> 100 µM (inactive)
same,GI50,[53],> 100 µM (inactive)
same,GI50,[63],> 100 µM (inactive)
same,GI50,[54],> 100 µM (inactive)
